Results as given in patent US9113629B2, “4-amino-6-(4-substituted-phenyl)-picolinates and 6-amino-2-(4-substituted-phenyl)-pyrimidine-4-carboxylates and their use as herbicides” (DOW AGROSCIENCES LLC, priority 2013, dated 2015).

Experiments:
Experiment in all cases: Post-emergent Test III, herbicidal activity in wheat and barley
Format in all cases: in vivo
[1] = system: VERPE: bird's-eye speedwell (veronica persica); details: for pest or weed control at 35 g/ha / pest or weed control at 70 g/ha / pest or weed control at 140 g/ha: Veronica persica, post-emergence, 504 h, read-out: Visual Growth Reduction (%) 21 Days After Application VERPE; for pest or weed control at 35 g/ha: 35 g ai/ha; for pest or weed control at 70 g/ha: 70 g ai/ha; for pest or weed control at 140 g/ha: 140 g ai/ha; for GR50 VERPE / GR80 VERPE: probit analysis, 21 days after application; for GR50 VERPE: dose for growth reduction of 50 percent; for GR80 VERPE: dose for growth reduction of 80 percent
How it was run: (§1)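 Plants at the second to third true-leaf stage, grown in a greenhouse at about 18/17 °C with a 14 h photoperiod, were sprayed post-emergence at 187 L/ha with the high rate and ½× to 1/16× serial dilutions in an acetone/DMSO/crop-oil/surfactant carrier. Injury was rated visually at 21 d on a 0–100% scale, and GR20–GR90 were derived by probit analysis.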

[2] = system: PAPRH: common poppy (Papaver rhoeas); details: for pest or weed control at 35 g/ha / pest or weed control at 70 g/ha / pest or weed control at 140 g/ha: Papaver rhoeas, post-emergence, 504 h, read-out: Visual Growth Reduction (%) 21 Days After Application PAPRH; for pest or weed control at 35 g/ha: 35 g ai/ha; for pest or weed control at 70 g/ha: 70 g ai/ha; for pest or weed control at 140 g/ha: 140 g ai/ha; for GR50 PAPRH / GR80 PAPRH: probit analysis, 21 days after application; for GR50 PAPRH: dose for growth reduction of 50 percent; for GR80 PAPRH: dose for growth reduction of 80 percent
How it was run: as §1

[3] = system: LAMSS; details: for pest or weed control at 35 g/ha / pest or weed control at 70 g/ha / pest or weed control at 140 g/ha: post-emergence, 504 h, read-out: Visual Growth Reduction (%) 21 Days After Application LAMSS; for pest or weed control at 35 g/ha: 35 g ai/ha; for pest or weed control at 70 g/ha: 70 g ai/ha; for pest or weed control at 140 g/ha: 140 g ai/ha; for GR50 LAMSS / GR80 LAMSS: probit analysis, 21 days after application; for GR50 LAMSS: dose for growth reduction of 50 percent; for GR80 LAMSS: dose for growth reduction of 80 percent
How it was run: as §1

[4] = system: BROTE: downy brome (Bromus tectorum); details: for pest or weed control at 35 g/ha / pest or weed control at 70 g/ha / pest or weed control at 140 g/ha: Bromus tectorum, post-emergence, 504 h, read-out: Visual Growth Reduction (%) 21 Days After Application BROTE; for pest or weed control at 35 g/ha: 35 g ai/ha; for pest or weed control at 70 g/ha: 70 g ai/ha; for pest or weed control at 140 g/ha: 140 g ai/ha; for GR50 BROTE / GR80 BROTE: probit analysis, 21 days after application; for GR50 BROTE: dose for growth reduction of 50 percent; for GR80 BROTE: dose for growth reduction of 80 percent
How it was run: as §1

[5] = system: ALOMY: black-grass (Alopecurus myosuroides); details: for pest or weed control at 35 g/ha / pest or weed control at 70 g/ha / pest or weed control at 140 g/ha: Alopecurus myosuroides, post-emergence, 504 h, read-out: Visual Growth Reduction (%) 21 Days After Application ALOMY; for pest or weed control at 35 g/ha: 35 g ai/ha; for pest or weed control at 70 g/ha: 70 g ai/ha; for pest or weed control at 140 g/ha: 140 g ai/ha; for GR50 ALOMY / GR80 ALOMY: probit analysis, 21 days after application; for GR50 ALOMY: dose for growth reduction of 50 percent; for GR80 ALOMY: dose for growth reduction of 80 percent
How it was run: as §1

Compound | pest or weed control at 35 g/ha [1] [%] | pest or weed control at 70 g/ha [1] [%] | pest or weed control at 140 g/ha [1] [%] | GR50 VERPE [1] [g ai/ha] | GR80 VERPE [1] [g ai/ha] | pest or weed control at 35 g/ha [3] [%] | pest or weed control at 70 g/ha [3] [%] | pest or weed control at 140 g/ha [3] [%] | GR50 LAMSS [3] [g ai/ha] | GR80 LAMSS [3] [g ai/ha] | pest or weed control at 35 g/ha [4] [%] | pest or weed control at 70 g/ha [4] [%] | pest or weed control at 140 g/ha [4] [%] | GR50 BROTE [4] [g ai/ha] | GR80 BROTE [4] [g ai/ha] | pest or weed control at 35 g/ha [5] [%] | pest or weed control at 70 g/ha [5] [%] | pest or weed control at 140 g/ha [5] [%] | GR50 ALOMY [5] [g ai/ha] | GR80 ALOMY [5] [g ai/ha] | other results
Nc1c(F)c(-c2ccc(Br)cc2)nc(C(=O)O)c1Cl [Compound 20] | 60 to 74 | 60 to 74 | 75 to 84 | 33 | >140 | 95 to 100 | 95 to 100 | 95 to 100 | 1 | 1 | 75 to 84 | 85 to 94 | 85 to 94 | 3 | 87 | 75 to 84 | 75 to 84 | 75 to 84 | 21 | 72 | pest or weed control at 35 g/ha [2]: 95 to 100%; pest or weed control at 70 g/ha [2]: 95 to 100%; pest or weed control at 140 g/ha [2]: 95 to 100%; GR50 PAPRH [2]: 1 g ai/ha; GR80 PAPRH [2]: 1 g ai/ha
N#Cc1ccc(-c2nc(C(=O)O)c(Cl)c(N)c2F)cc1 [Compound 39] | 85 to 94 | 85 to 94 | 95 to 100 | 1 | 12 | 95 to 100 | 95 to 100 | 95 to 100 | 1 | 1 | 0 to 29 | 0 to 29 | 0 to 29 | – | – | 0 to 29 | 45 to 59 | 45 to 59 | 111 | >140 | pest or weed control at 35 g/ha [2]: 95 to 100%; pest or weed control at 70 g/ha [2]: 95 to 100%; pest or weed control at 140 g/ha [2]: 95 to 100%; GR50 PAPRH [2]: 0 g ai/ha; GR80 PAPRH [2]: 0 g ai/ha
Nc1c(F)c(-c2ccc(I)cc2)nc(C(=O)O)c1Cl [Compound 45, 4-amino-3-chloro-5-fluoro-6-(4-iodophenyl)picolinic acid] | 75 to 84 | 85 to 94 | 85 to 94 | 7 | 30 | 85 to 94 | 95 to 100 | 95 to 100 | 1 | 6 | 85 to 94 | 85 to 94 | 95 to 100 | 13 | 36 | 75 to 84 | 85 to 94 | 95 to 100 | 9 | 27 | pest or weed control at 35 g/ha [2]: 95 to 100%; pest or weed control at 70 g/ha [2]: 95 to 100%; pest or weed control at 140 g/ha [2]: 95 to 100%; GR50 PAPRH [2]: 1 g ai/ha; GR80 PAPRH [2]: 1 g ai/ha
COC(=O)c1nc(-c2ccc(OC(F)F)cc2)c(F)c(N)c1Cl [Compound 85] | 30 to 44 | 45 to 59 | 60 to 74 | 90 | >140 | 85 to 94 | 85 to 94 | 85 to 94 | 0 | 6 | 0 to 29 | 0 to 29 | 0 to 29 | >140 | >140 | 0 to 29 | 0 to 29 | 0 to 29 | >140 | >140 | pest or weed control at 35 g/ha [2]: 85 to 94%; pest or weed control at 70 g/ha [2]: 95 to 100%; pest or weed control at 140 g/ha [2]: 95 to 100%; GR50 PAPRH [2]: 1 g ai/ha; GR80 PAPRH [2]: 3 g ai/ha
COC(=O)c1nc(-c2ccc(Br)c(F)c2F)cc(N)c1Cl [Compound 114, methyl 4-amino-6-(4-bromo-2,3-difluorophenyl)-3-chloropicolinate] | 30 to 44 | 30 to 44 | 30 to 44 | >140 | >140 | 85 to 94 | 85 to 94 | 95 to 100 | 1 | 4 | 0 to 29 | 0 to 29 | 0 to 29 | >140 | >140 | 0 to 29 | 0 to 29 | 0 to 29 | >140 | >140 | pest or weed control at 35 g/ha [2]: 95 to 100%; pest or weed control at 70 g/ha [2]: 95 to 100%; pest or weed control at 140 g/ha [2]: 95 to 100%; GR50 PAPRH [2]: 1 g ai/ha; GR80 PAPRH [2]: 4 g ai/ha
COC(=O)c1nc(-c2ccc(I)cc2)c(F)c(N)c1Cl [Compound 118, Methyl 4-amino-6-(4-iodophenyl)-3-chloro-5-fluoropicolinate] | 85 to 94 | 85 to 94 | 95 to 100 | 5 | 17 | 95 to 100 | 95 to 100 | 95 to 100 | 1 | 0 | 60 to 74 | 85 to 94 | 85 to 94 | 31 | 64 | 60 to 74 | 75 to 84 | 85 to 94 | 25 | 60 | pest or weed control at 35 g/ha [2]: 95 to 100%; pest or weed control at 70 g/ha [2]: 95 to 100%; pest or weed control at 140 g/ha [2]: 95 to 100%; GR50 PAPRH [2]: 1 g ai/ha; GR80 PAPRH [2]: 1 g ai/ha
Nc1c(F)c(-c2ccc(Br)c(F)c2F)nc(C(=O)O)c1Cl [Compound 147] | – | – | – | – | – | 85 to 94 | 85 to 94 | 85 to 94 | 1 | 8 | 75 to 84 | 85 to 94 | 85 to 94 | 6 | 28 | 60 to 74 | 85 to 94 | 85 to 94 | 20 | 47 | –
COC(=O)c1nc(-c2ccc(C(F)F)cc2)c(F)c(N)c1Cl [Compound 209] | – | – | – | – | – | 85 to 94 | 85 to 94 | – | 7 | 29 | 0 to 29 | 30 to 44 | – | 88 | >140 | 0 to 29 | 0 to 29 | – | >140 | >140 | –
C=Cc1c(C(=O)O)nc(-c2ccc(Cl)c(F)c2)c(F)c1N [Compound 214] | – | – | – | – | – | 75 to 84 | 75 to 84 | 85 to 94 | 12 | 33 | 0 to 29 | 0 to 29 | 0 to 29 | >140 | >140 | 30 to 44 | 45 to 59 | 30 to 44 | 95 | >140 | –
